Measured values as given in the NIST ThermoML archive (doi:10.1016/j.jct.2014.12.006).
± gives the expanded uncertainty stated by the source.

Assay: mn = molality of the nth substance listed, in mol/kg
Settings: 298.15 K, 102 kPa, Liquid, Vibrating tube method

CCCCCCCCCCCC[N+](C)(C)CC[N+](C)(C)CCCCCCCCCCCC.[Br-].[Br-] [1,2-bis(dimethyldodecylammonium)ethane dibromide] + O
mass density (m1 = 0.0005): 997.078 ± 0.12 kg/m3
mass density (m1 = 0.00056): 997.083 ± 0.12 kg/m3
mass density (m1 = 0.00065): 997.091 ± 0.12 kg/m3
mass density (m1 = 0.0007): 997.095 ± 0.12 kg/m3
mass density (m1 = 0.00079): 997.103 ± 0.12 kg/m3
mass density (m1 = 0.00089): 997.112 ± 0.12 kg/m3
mass density (m1 = 0.00095): 997.117 ± 0.12 kg/m3
mass density (m1 = 0.00104): 997.124 ± 0.12 kg/m3
mass density (m1 = 0.00107): 997.126 ± 0.12 kg/m3
mass density (m1 = 0.00119): 997.136 ± 0.12 kg/m3
mass density (m1 = 0.0013): 997.144 ± 0.12 kg/m3
mass density (m1 = 0.00142): 997.153 ± 0.12 kg/m3
mass density (m1 = 0.00168): 997.172 ± 0.12 kg/m3

CCCCCCCCCCCCn1cc[n+](C)c1.[Br-] [1-dodecyl-3-methylimidazolium bromide] + O
mass density (m1 = 0.00525): 997.226 ± 0.12 kg/m3
mass density (m1 = 0.00574): 997.243 ± 0.12 kg/m3
mass density (m1 = 0.00615): 997.258 ± 0.12 kg/m3
mass density (m1 = 0.007): 997.288 ± 0.12 kg/m3
mass density (m1 = 0.00733): 997.299 ± 0.12 kg/m3
mass density (m1 = 0.00816): 997.329 ± 0.12 kg/m3
mass density (m1 = 0.00869): 997.347 ± 0.12 kg/m3
mass density (m1 = 0.0092): 997.365 ± 0.12 kg/m3
mass density (m1 = 0.01006): 997.396 ± 0.12 kg/m3
mass density (m1 = 0.01063): 997.412 ± 0.12 kg/m3
mass density (m1 = 0.01124): 997.43 ± 0.12 kg/m3
mass density (m1 = 0.01196): 997.451 ± 0.12 kg/m3
mass density (m1 = 0.01274): 997.474 ± 0.12 kg/m3
mass density (m1 = 0.01356): 997.498 ± 0.12 kg/m3
mass density (m1 = 0.01464): 997.529 ± 0.12 kg/m3
mass density (m1 = 0.01526): 997.545 ± 0.12 kg/m3
mass density (m1 = 0.01629): 997.575 ± 0.12 kg/m3
mass density (m1 = 0.01707): 997.595 ± 0.12 kg/m3
